#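 GI50: concentration for 50% inhibition of growth. TGI marks complete inhibition of growth.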
# How the values were obtained:
# Experiment in all cases: DTP human tumour cell line panel, 384-well format
# [1] = test system: 786-0 renal
# [2] = test system: A498 renal
# [3] = test system: A549 NSCLC
# [4] = test system: ACHN renal
# [5] = test system: BT-549 breast
# [6] = test system: CAKI-1 renal
# [7] = test system: COLO 205 colon
# [8] = test system: DU-145 prostate
# [9] = test system: EKVX NSCLC
# [10] = test system: HCT-116 colon
# [11] = test system: HCT-15 colon
# [12] = test system: HL-60(TB) leukemia
# [13] = test system: HOP-62 NSCLC
# [14] = test system: HOP-92 NSCLC
# [15] = test system: HS 578T breast
# [16] = test system: HT29 colon
# [17] = test system: IGROV1 ovarian
# [18] = test system: K-562 leukemia
# [19] = test system: KM12 colon
# [20] = test system: M14 melanoma
# [21] = test system: MALME-3M melanoma
# [22] = test system: MDA-MB-231 breast
# [23] = test system: MDA-MB-435 melanoma
# [24] = test system: MDA-MB-468 breast
# [25] = test system: MOLT-4 leukemia
# [26] = test system: NCI-H226 lung
# [27] = test system: NCI-H23 lung
# [28] = test system: NCI-H322M lung
# [29] = test system: NCI-H460 NSCLC
# [30] = test system: NCI-H522 lung
# [31] = test system: OVCAR-3 ovarian
# [32] = test system: OVCAR-4 ovarian
# [33] = test system: OVCAR-5 ovarian
# [34] = test system: OVCAR-8 ovarian
# [35] = test system: PC-3 prostate
# [36] = test system: RXF 393 renal
# [37] = test system: SF-268 CNS
# [38] = test system: SF-295 CNS
# [39] = test system: SF-539 CNS
# [40] = test system: SK-MEL-2 melanoma
# [41] = test system: SK-MEL-28 melanoma
# [42] = test system: SK-MEL-5 melanoma
# [43] = test system: SK-OV-3 ovarian
# [44] = test system: SN12C renal
# [45] = test system: SNB-19 CNS
# [46] = test system: SNB-75 CNS
# [47] = test system: SR leukemia
# [48] = test system: SW-620 colon
# [49] = test system: T-47D breast
# [50] = test system: TK-10 renal
# [51] = test system: U251 glioblastoma
# [52] = test system: UACC-257 melanoma
# [53] = test system: UACC-62 melanoma
# [54] = test system: UO-31 renal
smiles,measurement,setting,value
Nc1nc(Nc2ccc3c(c2)CC[C@@H](N2CCCC2)CC3)nn1-c1cc2c(nn1)-c1ccccc1CCC2,GI50,[1],0.456 µM
same,TGI,[1],1.64 µM
same,GI50,[2],0.327 µM
same,TGI,[2],1.19 µM
same,GI50,[3],1.38 µM
same,TGI,[3],2.7 µM
same,GI50,[4],0.431 µM
same,TGI,[4],1.51 µM
same,GI50,[5],1.08 µM
same,TGI,[5],2.27 µM
same,GI50,[6],0.493 µM
same,TGI,[6],1.72 µM
same,GI50,[7],1.5 µM
same,TGI,[7],2.84 µM
same,GI50,[8],0.939 µM
same,TGI,[8],2.16 µM
same,GI50,[9],1.02 µM
same,TGI,[9],2.19 µM
same,GI50,[10],0.478 µM
same,TGI,[10],1.73 µM
same,GI50,[11],0.564 µM
same,TGI,[11],1.8 µM
same,GI50,[12],1.21 µM
same,TGI,[12],2.45 µM
same,GI50,[13],1.02 µM
same,TGI,[13],2.19 µM
same,GI50,[14],0.798 µM
same,TGI,[14],2.07 µM
same,GI50,[15],0.262 µM
same,TGI,[15],1.27 µM
same,GI50,[16],0.326 µM
same,TGI,[16],1.08 µM
same,GI50,[17],0.418 µM
same,TGI,[17],1.55 µM
same,GI50,[18],0.331 µM
same,TGI,[18],1.21 µM
same,GI50,[19],1.07 µM
same,TGI,[19],2.29 µM
same,GI50,[20],0.451 µM
same,TGI,[20],1.59 µM
same,GI50,[21],0.284 µM
same,TGI,[21],0.827 µM
same,GI50,[22],1.63 µM
same,TGI,[22],3 µM
same,GI50,[23],1.02 µM
same,TGI,[23],2.19 µM
same,GI50,[24],1.45 µM
same,TGI,[24],2.76 µM
same,GI50,[25],0.186 µM
same,TGI,[25],0.334 µM
same,GI50,[26],1.45 µM
same,TGI,[26],2.77 µM
same,GI50,[27],1.33 µM
same,TGI,[27],2.61 µM
same,GI50,[28],0.529 µM
same,TGI,[28],1.77 µM
same,GI50,[29],0.36 µM
same,TGI,[29],1.28 µM
same,GI50,[30],1.27 µM
same,TGI,[30],2.54 µM
same,GI50,[31],1.15 µM
same,TGI,[31],2.37 µM
same,GI50,[32],1.48 µM
same,TGI,[32],2.8 µM
same,GI50,[33],1.63 µM
same,TGI,[33],3 µM
same,GI50,[34],1.52 µM
same,TGI,[34],2.86 µM
same,GI50,[35],0.796 µM
same,TGI,[35],2.05 µM
same,GI50,[36],0.0259 µM
same,TGI,[36],0.545 µM
same,GI50,[37],1.18 µM
same,TGI,[37],2.41 µM
same,GI50,[38],0.634 µM
same,TGI,[38],1.94 µM
same,GI50,[39],0.244 µM
same,TGI,[39],1.11 µM
same,GI50,[40],0.415 µM
same,TGI,[40],1.4 µM
same,GI50,[41],1.4 µM
same,TGI,[41],2.7 µM
same,GI50,[42],1.06 µM
same,TGI,[42],2.25 µM
same,GI50,[43],0.305 µM
same,TGI,[43],1.24 µM
same,GI50,[44],0.346 µM
same,TGI,[44],1.68 µM
same,GI50,[45],1.59 µM
same,TGI,[45],2.96 µM
same,GI50,[46],1.14 µM
same,TGI,[46],2.35 µM
same,GI50,[47],0.186 µM
same,TGI,[47],0.328 µM
same,GI50,[48],1.14 µM
same,TGI,[48],2.37 µM
same,GI50,[49],1.21 µM
same,TGI,[49],2.45 µM
same,GI50,[50],1.01 µM
same,TGI,[50],2.18 µM
same,GI50,[51],0.761 µM
same,TGI,[51],2.02 µM
same,GI50,[52],0.182 µM
same,TGI,[52],0.368 µM
same,GI50,[53],0.773 µM
same,TGI,[53],2.02 µM
same,GI50,[54],1.04 µM
same,TGI,[54],2.22 µM
